“Also recorded” adds a separate entry of the source. Read-outs that look alike come from different tables or passages of the source.
Columns and labels:
[1] = biological target: T1, hDAAO (Homo sapiens, UniProt P14920); experiment: D-serine and FAD saturation experiments (mechanism of inhibition, Ki); format: biochemical; details: for Mechanism of inhibition: D-serine saturation at 40 μM FAD, FAD saturation at 50 mM D-serine; for Ki: global fit of D-serine saturation data to equations (3) and (4), mean±S.D.
T1 construct: hexaHis (N); made in house
T1 sequence (P14920 whole entry): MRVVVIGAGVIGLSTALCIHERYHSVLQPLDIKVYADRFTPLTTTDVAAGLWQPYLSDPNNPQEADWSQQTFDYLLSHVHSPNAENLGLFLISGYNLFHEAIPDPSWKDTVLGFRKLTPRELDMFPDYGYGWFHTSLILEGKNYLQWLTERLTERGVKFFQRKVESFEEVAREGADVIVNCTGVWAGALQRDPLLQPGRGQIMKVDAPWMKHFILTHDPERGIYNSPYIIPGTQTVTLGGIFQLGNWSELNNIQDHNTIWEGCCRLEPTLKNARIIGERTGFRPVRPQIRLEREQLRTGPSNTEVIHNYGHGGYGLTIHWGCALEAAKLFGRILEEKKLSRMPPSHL
Description: To determine inhibitor mechanism of action (D-serine- or FAD-competition), saturation experiments were performed using the Amplex Red system. Keeping D-serine or FAD constant, concentration of the other substrate was varied, and hDAAO enzymatic product was measured fluorescently as described above; these saturation tests were conducted in the presence of variable amounts of inhibitor. In these experiments, there was no preincubation period, such that hDAAO was exposed to D-serine, FAD and inhibitor simultaneously. […] After a 1 h reaction, product was measured using the FlexStation II in the endpoint mode. Data were plotted and fit with a one site, specific binding equation (Graphpad Prism): (2) y=Vmax×x/KM+x
Equation (2) permitted a determination of Vmax and KM at variable inhibitor concentration for a determination of competitive, uncompetitive or non-competitive profile. For D-serine competitive inhibitors, the same data were fit using the GraphPad Prism ‘Competitive inhibition’ equation to derive a global Ki value: (3) KM,obs=KM(1+[I]Ki) (4) y=Vmax×x/KM,obs+x

[2] = biological target: T2, hDAAO (human D-amino acid oxidase) (Homo sapiens, UniProt P14920); experiment: hDAAO inhibition assay, Amplex Red format, D-serine as substrate; format: biochemical; details: for IC50: 0.73 nM His-hDAAO, 5 mM D-serine, 450 nM FAD, pH 7.4, mean±S.D.; for IC50 values relative to compound 3: in several of the biochemical assays
T2 construct: hexaHis (N); made in house
T2 sequence (P14920 whole entry): as above
Description: (§1) All enzymatic assays were conducted at room temperature (23–24°C) in 96-well plate format. Dose response data to generate IC50 data were analysed via Prism (Graphpad Software) or by a script executed by Pipeline Pilot (Accelrys).
(§2) For our assay, N-terminal hexaHis (His)-tagged hDAAO (prepared as described previously [32]), HRP (horseradish peroxidase), FAD, and compound inhibitor were incubated for 20–30 min. After that pre-incubation period, D-serine and Amplex Red were added and reaction proceeded for 1 hour. Fluorescent product, caused by hydrogen peroxide-dependent, Amplex Red oxidation during hDAAO-catalysed substrate turnover, was measured on a FlexStation II (Molecular Devices) in endpoint mode with these settings: excitation 530 nm, emission 590 nm, cutoff 590 nm and photomultiplier tube on Low. […] For the counter assay, hDAAO was omitted and 800 nM hydrogen peroxide (Sigma) was included.

[3] = biological target: HRP/hydrogen peroxide detection system (Armoracia rusticana, UniProt P00433); experiment: Counter assay (Amplex Red; hDAAO omitted, hydrogen peroxide included); details: Amplex Red detection system without hDAAO
Chain of HRP/hydrogen peroxide detection system (P00433 31-338): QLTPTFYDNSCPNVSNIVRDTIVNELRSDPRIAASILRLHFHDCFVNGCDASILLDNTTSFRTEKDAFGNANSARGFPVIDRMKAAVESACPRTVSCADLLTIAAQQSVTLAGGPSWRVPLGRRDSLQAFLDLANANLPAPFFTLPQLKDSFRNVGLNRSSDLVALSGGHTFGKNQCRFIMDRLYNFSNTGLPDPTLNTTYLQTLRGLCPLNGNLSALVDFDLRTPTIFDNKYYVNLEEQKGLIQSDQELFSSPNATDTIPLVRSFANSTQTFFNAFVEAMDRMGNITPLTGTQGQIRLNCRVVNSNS
Description: as §2

[4] = biological target: rDAAO (rat DAAO) (Rattus norvegicus, UniProt O35078); experiment: rDAAO inhibition assay, Amplex Red format
Chain of rDAAO (rat DAAO) (O35078 whole entry): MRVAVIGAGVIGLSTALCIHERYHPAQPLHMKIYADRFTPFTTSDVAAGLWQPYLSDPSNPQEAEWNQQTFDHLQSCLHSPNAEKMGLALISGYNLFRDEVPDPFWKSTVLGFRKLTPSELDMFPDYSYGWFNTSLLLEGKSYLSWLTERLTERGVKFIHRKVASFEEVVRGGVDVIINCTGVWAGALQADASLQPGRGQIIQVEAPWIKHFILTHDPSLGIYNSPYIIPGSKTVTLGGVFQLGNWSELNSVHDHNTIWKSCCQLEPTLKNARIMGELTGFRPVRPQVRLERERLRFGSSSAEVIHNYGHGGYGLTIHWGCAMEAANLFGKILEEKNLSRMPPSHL
Description: as §1, §2

[5] = In vivo brain penetration after intraperitoneal dosing; details: mouse, brain and plasma, ip; mice, dosed intraperitoneally; results not shown; read-out: brain:plasma compound ratio
Description: Multiple groups have pursued the discovery of potent, brain-penetrant, drug-like hDAAO inhibitors for use in treating schizophrenia and other nervous system disorders. Thus, the identification of a novel hDAAO conformation could guide the design of the next generation of hDAAO inhibitors. […] Like all existing high-affinity hDAAO inhibitors, interaction of these compounds with Arg^283 of hDAAO requires a carboxylic acid or other electronegative moiety, a feature that is known to reduce brain penetration. […] Potency gained by optimizing ligand binding in these hDAAO regions could conceivably reduce the need for extensive Arg^283 association, and, thus, could facilitate the creation of novel inhibitors of hDAAO.

[6] = biological target: T1, hDAAO; experiment: Jump-dilution assay (reversibility, apparent dissociation rate); format: biochemical; details: for koff: jump-dilution
Description: The assay mixture was similar to that described above for the Amplex Red-based assay system. […] After a 30 min pre-incubation to form inhibited complexes, 195 μl of reaction mixture was added. Compared with the standard assay, 50 mM D-serine was utilized as the hDAAO substrate. […] Immediately after adding the reaction mixture, fluorescent substrate was monitored kinetically by the FlexStation II. Data were fit using the following equation [38] in which Pis the fluorescent product formed, tis the time, vs is the final, steady-state reaction velocity, vi is the initial reaction velocity, and k is the koff: (1) [P]=vst+vi−vs/k(1−e^−kt)

[7] = biological target: T1, hDAAO; experiment: LC–MS-based hDAAO inhibition assay, D-phenylglycine as substrate; format: biochemical; details: 5 nM His-hDAAO, 5 mM D-phenylglycine, 450 nM FAD; mean±S.D.
Description: as §1
For the LC–MS-based hDAAO inhibition assay, his-hDAAO, FAD and compound inhibitors were incubated for 20–30 min. After that period, D-phenylglycine was added and reaction proceeded for 1 h. […] Following the 1 h enzymatic reaction, an equal volume of 100% (v/v) acetonitrile was added. Quantitation of benzylformic acid concentrations was performed using negative ion liquid chromatography/mass spectrometry/mass spectrometry (LC–MS/MS). A 2 μl aliquot of sample was injected onto an ultra-high performance liquid chromatographic system (UPLC Waters Corp) equipped with an API 5500 QTrap mass spectrometer detector (Applied Biosystems/MDS Sciex) operated in the negative TurboIonSpray® mode. […] The mobile phases used for elution consisted of 1.0 mM ammonium formate with 0.2% (v/v) formic acid in water (A) and 1.0 mM ammonium formate with 0.2% (v/v) formic acid in acetonitrile (B) at a total flow rate of 0.600 ml/min. Wash solvent 1 was 3% formic acid in acetonitrile and wash solvent 2 was 3% formic acid in water. Calibration standards were injected once before and once after the analysis of unknown samples to construct a standard curve. A linear weighted (1/concentration^2) regression analysis of the analyte peak area ratio versus theoretical concentration was used to produce calibration curves from standards.

[8] = 80 μM FAD pre-incubation, 50 mM D-serine, mean±S.D.

| Compound | Mechanism of inhibition [1] | IC50 [2] | IC50 [4] | IC50 [7] | other results |
| --- | --- | --- | --- | --- | --- |
| Nc1ncnc2c1ncn2[C@@H]1O[C@H](COP(=O)(O)OP(=O)(O)O)[C@@H](O)[C@H]1O [ADP, reference compound] | FAD-competitive inhibitor of hDAAO; also recorded: D-serine mixed competition, FAD competitive | 580000 ± 80000 nM | – | – | – |
| O=C(O)c1cc2occc2[nH]1 [Compound 1, 4H-furo[3,2-b]pyrrole-5-carboxylic acid, reference compound] | – | – | 87 ± 11 nM | – | inhibition in the counter assay [3]: did not display inhibition |
| O=C(O)CCc1cc2c(-c3ccccc3)cc(=O)oc2cc1O [Compound 2, 3-(7-hydroxy-2-oxo-4-phenyl-2H-chromen-6-yl)propanoic acid] | D-serine competitive, FAD uncompetitive | 37 ± 14 nM | 4000 ± 1400 nM | 230 ± 180 nM | Kp [5]: < 0.05; inhibition in the counter assay [3]: did not display inhibition; Ki [1]: 7 ± 1.4 nM; hDAAO inhibition after dilution ([6]; 5 nM compound, 50 mM D-serine recovery conditions): no significant inhibition; reversibility of inhibition ([6]; 200 nM then 5 nM jump dilution): reversible inhibition; koff [6, 8]: 0.12 ± 0.02 (8) per min; inhibition at 0.2 µM ([2]; 200 nM compound): > 80% |
| O=c1cc(-c2ccccc2)c2cc(CCc3cc(O)c(=O)[nH]n3)c(O)cc2o1 [Compound 3, 4-hydroxy-6-(2-(7-hydroxy-2-oxo-4-phenyl-2H-chromen-6-yl)ethyl)pyridazin-3(2H)-one] | D-serine competitive, FAD uncompetitive | 20 ± 5 nM | 47 ± 16 nM | 110 ± 20 nM | Kp [5]: < 0.05; Ki [1]: < 10 nM; dissociative half-life ([6]; from koff): ~1 h; koff [6, 8]: 0.015 ± 0.03 (3) per min; koff ([6]; read-out: off-rate (koff) (converted)): 0.00025 s⁻¹; more potent as hDAAO inhibitor than compound 2 ([2]; relative to compound 2): approximately 2 fold |
| Cc1cc(=O)oc2cc(O)c(CCC(=O)O)cc12 [Compound 4] | – | 18000 nM | – | – | hDAAO inhibitory potency weaker than compound 2 ([2]; relative to compound 2): approximately 500 fold |
| O=c1[nH]nc(CCc2ccc(O)cc2O)cc1O [Compound 5, 6-(2,4-dihydroxyphenethyl)-4-hydroxypyridazin-3(2H)-one] | – | 54 ± 10 nM | 130 nM | 13 nM | IC50 values relative to compound 3 [2]: 5–10 fold |
| COc1ccc(CCc2cc(O)c(=O)[nH]n2)c(OC)c1 [Compound 6, 6-(2,4-dimethoxyphenethyl)-4-hydroxypyridazin-3(2H)-one] | – | 7.2 ± 1 nM | 83 ± 7 nM | 24 nM | IC50 values relative to compound 3 [2]: 5–10 fold |

— PMC4127593, “Novel human D-amino acid oxidase inhibitors stabilize an active-site lid-open conformation” (Bioscience Reports, 2014)
